Data from patent US5229381A, “Substituted azetidinones as anti-inflammatory and antidegenerative agents” (Merck & Co., Inc., priority 1991, dated 1993).

molecular target: T1, human polymorphonuclear leukocyte elastase (Homo sapiens, UniProt P08246); assay: Inhibition of human polymorphonuclear leukocyte (granulocyte) elastase via hydrolysis of Boc-AAPAN or Boc-AAPVN; assay type: biochemical; conditions: pH 7.5, Table III, (per mole per second); read-out: kobs/I, second order rate constant of inactivation of the enzyme
T1 construct: Crude extract of human polymorphonuclear leukocytes (PMN) containing elastase activity; endogenous in cells; host or cells: human polymorphonuclear leukocytes (crude extract)
T1 sequence (P08246 30-247 limits assumed): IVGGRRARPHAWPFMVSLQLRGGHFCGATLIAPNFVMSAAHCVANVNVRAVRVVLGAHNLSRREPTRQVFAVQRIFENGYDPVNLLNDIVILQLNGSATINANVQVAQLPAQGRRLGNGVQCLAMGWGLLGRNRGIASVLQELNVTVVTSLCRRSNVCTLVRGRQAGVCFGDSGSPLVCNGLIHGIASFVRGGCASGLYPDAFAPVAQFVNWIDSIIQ
Protocol: Enzyme Assays for the Inhibition of Human Polymorphonuclear Leukocyte Elastase Via Hydrolysis of N-t-Boc-alanyl-alanyl-prolylalanine-p-nitroanilide (Boc-AAPAN) or N-t-Boc-alanyl-prolylvaline-p-nitroanilide (Boc-AAPVN) Reagent:
0.05M TES (N-tris[hydroxymethyl]methyl-2-amino-ethanesulfonic acid) Buffer, pH 7.5.
0.2 mM Boc-AAPAN or Boc-AAPVN.
To prepare substrate, the solid was first dissolved in 10.0 ml DMSO. Buffer at pH 7.5 was then added to a final volume of 100 ml.
Crude extract of human polymorphonuclear leukocytes (PMN) containing elastase activity.
Inhibitors (azetidinones) to be tested dissolved in DMSO just before use.
To 1.0 ml of 0.2 mM Boc-AAPAN in a cuvette, 0.01-0.1 ml of DMSO with or without inhibitor was added. After mixing, a measurement was taken at 410 mμ to detect any spontaneous hydrolysis due to presence of test compound. 0.05 Milliliters of PMN extract was then added and the ΔOD/min at 410 mμ was measured and recorded. Beckman model 35 spectrophotometer was used.
Results were also expressed as Ki, the micromolar concentration of the inhibitor (μM) giving 50% of the control enzyme activity; or as ^k obs/I which is the second order rate constant in per mole per second for inactivation of the enzyme.
The elastase activity in the crude PMN extract may vary from one preparation to another. A control of each new batch is run, and the volume added in the assay procedure is adjusted according to activity.

Structure (SMILES)	kinact/KI [M⁻¹ s⁻¹]
CCC1(CC)C(=O)N(C(=O)NCc2ccc(-c3ccccc3)cc2)C1OCC(N)=O (stereo not drawn) [Table III: OCH2 CONH2; CH2Ph-4-Ph]	51800
CCC1(CC)C(=O)N(C(=O)NCc2ccc(-c3ccccc3)cc2)C1OCC(=O)O (stereo not drawn) [Table III: OCH2 COOH; CH2 Ph-4-Ph]	2900
CCC(NC(=O)N1C(=O)C(CC)(CC)C1OCC(N)=O)c1ccccc1 (stereo not drawn) [Table III: OCH2CONH2; CH(Et)Ph]	103000
CCC(NC(=O)N1C(=O)C(CC)(CC)C1OCC(=O)O)c1ccccc1 (stereo not drawn) [Table III: OCH2COOH; CH(Et)Ph]	5710
CCC1(CC)C(=O)N(C(=O)NCc2ccccc2)C1n1ccccc1=O (stereo not drawn) [Table III: [2H-1-pyridonyl]; CH2 Ph]	357

same assay, conditions: pH 7.5, Table IV, (per mole per second); read-out: kobs/I, second order rate constant of inactivation of the enzyme

Structure (SMILES)	kinact/KI [M⁻¹ s⁻¹]
CCC1C(=O)N(C(=O)N2CCc3ccccc3C2)C1Oc1ccc(C(=O)O)cc1 (stereo not drawn) [Table IV: C2 H5; H; O-(4-COOHPh); drawing 46]	10100

same assay, conditions: pH 7.5, Table V, (per mole per second); read-out: kobs/I, second order rate constant of inactivation of the enzyme

Structure (SMILES)	kinact/KI [M⁻¹ s⁻¹]
CC[C@@H](NC(=O)N1C(=O)C(CC)(CC)[C@@H]1Oc1ccc(CC(=O)O)cc1)c1ccccc1 [Table V: 4-CH2 COOH; Et; H]	140000
CCC[C@@H](NC(=O)N1C(=O)C(CC)(CC)[C@@H]1Oc1ccc(CC(=O)O)cc1)c1ccccc1 [Table V: 4-CH2 COOH; nPr; H]	227000
CCC1(CC)C(=O)N(C(=O)N[C@H](COC)c2ccccc2)[C@H]1Oc1ccc(C(=O)O)cc1 [Table V: 4-COOH; CH2 OMe; H]	6090
CC[C@@H](NC(=O)N1C(=O)C(CC)(CC)[C@@H]1Oc1ccc(C(=O)O)cc1)c1ccccc1 [Table V: 4-COOH; Et; H]	92000
CCC1(CC)C(=O)N(C(=O)N[C@H](C)c2ccc(C)cc2)[C@H]1Oc1ccc(C(=O)O)cc1 [Table V: 4-COOH; Me; 4-Me]	47000
CCC1(CC)C(=O)N(C(=O)N[C@H](Cc2ccccc2)c2ccccc2)[C@H]1Oc1ccc(C(=O)O)cc1 [Table V: 4-COOH; PhCH2; H]	25000
CCC[C@@H](NC(=O)N1C(=O)C(CC)(CC)[C@@H]1Oc1ccc(C(=O)O)cc1)c1ccccc1 [Table V: 4-COOH; nPr; H]	120000

same assay, conditions: pH 7.5, Table VI, (per mole per second); read-out: kobs/I, second order rate constant of inactivation of the enzyme

Structure (SMILES)	kinact/KI [M⁻¹ s⁻¹]
CC[C@@H](NC(=O)N1C(=O)C(CC)(CC)[C@@H]1Oc1cc(C)c(C(=O)O)c(C)c1)c1ccccc1 [Table VI: 3,5-Me2-4-COOH; Et; H]	25000
CC[C@@H](NC(=O)N1C(=O)C(CC)(CC)[C@@H]1Oc1cccc(CC(=O)O)c1)c1ccccc1 [Table VI: 3-CH2 COOH; Et; H]	81000
CCC1(CC)C(=O)N(C(=O)N[C@H](C)c2ccccc2)[C@H]1Oc1cccc(CC(=O)O)c1 [Table VI: 3-CH2 COOH; Me; H]	5880
CCC[C@@H](NC(=O)N1C(=O)C(CC)(CC)[C@@H]1Oc1ccc(CC(=O)O)c(Cl)c1)c1ccc(C)cc1 [Table VI: 3-Cl,4-CH2 COOH; nPr; 4-Me, (4S)-3,3-Diethyl-1-[(R)-α-n-propyl-(4-methyl)benzylaminocarbonyl]-4-[(4-carboxymethyl-3-chloro)phenoxy]azetidin-2-one]	589000
CCC[C@@H](NC(=O)N1C(=O)C(CC)(CC)[C@@H]1Oc1ccc(C(=O)O)c(Cl)c1)c1ccc(C)cc1 [Table VI: 3-Cl,4-COOH; nPr; 4-Me, (4S)-3,3-Diethyl-1-[(R)-α-n-propyl-(4-methyl)benzylaminocarbonyl]-4-[(4-carboxy-3-chloro)phenoxy]-azetidin-2-one]	621000
CCC[C@@H](NC(=O)N1C(=O)C(CC)(CC)[C@@H]1Oc1ccc(CC(=O)O)c(F)c1)c1ccc(C)cc1 [Table VI: 3-F,4-CH2 COOH; nPr; 4-Me, (4S)-3,3-Diethyl-1-[(R)-α-n-propyl-(4-methyl)benzylaminocarbonyl]-4-[(4-carboxymethyl-3-fluoro)phenoxy]azetidin-2-one]	637000
CCC[C@@H](NC(=O)N1C(=O)C(CC)(CC)[C@@H]1Oc1ccc(C(=O)O)c(F)c1)c1ccc(C)cc1 [Table VI: 3-F,4-COOH; nPr; 4-Me, (4S)-3,3-Diethyl-1-[(R)-α-n-propyl-(4-methyl)benzylaminocarbonyl]-4-[(4-carboxy-3-fluoro)phenoxy]-azetidin-2-one]	464000
CCC[C@@H](NC(=O)N1C(=O)C(CC)(CC)[C@@H]1Oc1ccc(CC(=O)O)c(C)c1)c1ccc(C)cc1 [Table VI: 3-Me,4-CH2 COOH; nPr; 4-Me]	998000
CCC[C@@H](NC(=O)N1C(=O)C(CC)(CC)[C@@H]1Oc1ccc(C(=O)O)c(C)c1)c1ccc(C)cc1 [Table VI: 3-Me,4-COOH; nPr; 4-Me, (4S)-3,3-diethyl-1-[(R)-α-n-propyl-(4-methyl)benzylaminocarbonyl]-4-[(4-carboxy-3-methyl)phenoxy]azetidin-2-one]	186000
CC[C@@H](NC(=O)N1C(=O)C(CC)(CC)[C@@H]1Oc1ccc(C(=O)O)c(O)c1)c1ccccc1 [Table VI: 3-OH-4-COOH; Et; H]	125000
CCC1(CC)C(=O)N(C(=O)N[C@H](C)c2ccccc2)[C@H]1Oc1ccc(CCC(=O)O)cc1 [Table VI: 4-(CH2)2 COOH; Me; H]	9480
CCC1(CC)C(=O)N(C(=O)N[C@@H](COC)c2ccccc2)[C@H]1Oc1ccc(CC(=O)O)cc1 [Table VI: 4-CH2 COOH; CH2 OMe(R); H]	11000
CC[C@@H](NC(=O)N1C(=O)C(CC)(CC)[C@@H]1Oc1ccc(CC(=O)O)cc1)c1ccccc1 [Table VI: 4-CH2 COOH; Et; H, (4S)-3,3-diethyl-1-[(R)-α-ethylbenzyl-aminocarbonyl]-4-[(4-carboxymethyl)phenoxy]azetidin-2-one]	126000
CCC1(CC)C(=O)N(C(=O)N[C@H](C)c2ccccc2)[C@H]1Oc1ccc(CC(=O)O)cc1 [Table VI: 4-CH2 COOH; Me; H]	8370
C=CC[C@@H](NC(=O)N1C(=O)C(CC)(CC)[C@@H]1Oc1ccc(CC(=O)O)cc1)c1ccc(C)cc1 [Table VI: 4-CH2 COOH; allyl; 4-Me, (4S)-3,3-diethyl-1-[(R)-α-allyl-(4-methyl)benzyl-aminocarbonyl]-4-[(4-carboxymethyl)phenoxy]azetidin-2-one]	664000
CCC[C@@H](NC(=O)N1C(=O)C(CC)(CC)[C@@H]1Oc1ccc(CC(=O)O)cc1)c1ccc(C)cc1 [Table VI: 4-CH2 COOH; nPr; 4-Me, (4S)-3,3-diethyl-1-[(R)-α-n-propyl-(4-methyl)-benzylaminocarbonyl]-4-[(4-carboxymethyl)-phenoxy]azetidin-2-one]	557000

Structure (SMILES)	kinact/KI [M⁻¹ s⁻¹]
CCC[C@@H](NC(=O)N1C(=O)C(CC)(CC)[C@@H]1Oc1ccc(CC(=O)O)cc1)c1ccccc1 [Table VI: 4-CH2 COOH; nPr; H, (4S)-3,3-diethyl-1-[(R)-α-n-propylbenzylamino-carbonyl]-4-[(4-carboxymethyl)phenoxy]azetidin-2-one]	188000
CCC1(CC)C(=O)N(C(=O)N[C@H](C)c2ccccc2)[C@H]1Oc1ccc(C=CC(=O)O)cc1 [Table VI: 4-CHCHCOOH; Me; H]	9100
CC[C@@H](NC(=O)N1C(=O)C(CC)(CC)[C@@H]1Oc1ccc(C(=O)CCC(=O)O)cc1)c1ccccc1 [Table VI: 4-CO(CH2)2 COOH; Et; H]	272000
CCC1(CC)C(=O)N(C(=O)N[C@H](C)c2ccccc2)[C@H]1Oc1ccc(C(=O)CCC(=O)O)cc1 [Table VI: 4-CO(CH2)2COOH; Me; H]	37100
CCC1(CC)C(=O)N(C(=O)N[C@@H](COC)c2ccccc2)[C@H]1Oc1ccc(C(=O)O)cc1 [Table VI: 4-COOH; CH2 OMe(R); H]	6980
CCC1(CC)C(=O)N(C(=O)N[C@H](COC)c2ccccc2)[C@H]1Oc1ccc(C(=O)O)cc1 [Table VI: 4-COOH; CH2 OMe(s); H]	6980
CC[C@@H](NC(=O)N1C(=O)C(CC)(CC)[C@@H]1Oc1ccc(C(=O)O)cc1)c1ccc(-c2ccccc2)cc1 [Table VI: 4-COOH; Et; 4-Ph]	26400
CC[C@@H](NC(=O)N1C(=O)C(CC)(CC)[C@@H]1Oc1ccc(C(=O)O)cc1)c1ccccc1 [Table VI: 4-COOH; Et; H]	76200
CCC1(CC)C(=O)N(C(=O)N[C@@H](C)c2ccc(-c3ccccc3)cc2)[C@H]1Oc1ccc(C(=O)O)cc1 [Table VI: 4-COOH; Me(s); 4-Ph]	49200
CCC1(CC)C(=O)N(C(=O)N[C@H](C)c2ccc(-c3ccccc3Cl)cc2)[C@H]1Oc1ccc(C(=O)O)cc1 [Table VI: 4-COOH; Me; 4-(2'-ClPh)]	245000
CCC1(CC)C(=O)N(C(=O)N[C@H](C)c2ccc(C)cc2)[C@H]1Oc1ccc(C(=O)O)cc1 [Table VI: 4-COOH; Me; 4-Me]	10700
CCC1(CC)C(=O)N(C(=O)N[C@H](C)c2ccc(-c3ccccc3)cc2)[C@H]1Oc1ccc(C(=O)O)cc1 [Table VI: 4-COOH; Me; 4-Ph]	74000
CCC1(CC)C(=O)N(C(=O)N[C@H](C)c2ccccc2)[C@H]1Oc1ccc(C(=O)O)cc1 [Table VI: 4-COOH; Me; H]	4020
CCC1(CC)C(=O)N(C(=O)N[C@H](c2ccccc2)c2ccc(-c3ccccc3)cc2)[C@H]1Oc1ccc(C(=O)O)cc1 [Table VI: 4-COOH; Ph; 4-Ph]	67800
CCC1(CC)C(=O)N(C(=O)N[C@H](c2ccccc2)C(C)C)[C@H]1Oc1ccc(C(=O)O)cc1 [Table VI: 4-COOH; iPr(S); H]	4740
CCC1(CC)C(=O)N(C(=O)N[C@@H](c2ccccc2)C(C)C)[C@H]1Oc1ccc(C(=O)O)cc1 [Table VI: 4-COOH; iPr; H]	177000
